Patent publication US10125135B2, “Chemical compounds” (AstraZeneca AB, priority 2016, dated 2018)
Values after ≈ are worked out from the molar mass of the structure shown.

Columns and labels:
[1] = Human plasma protein binding, equilibrium dialysis (RED); type: in vitro ADME; settings: dialysis for 18 hours
Experimental: Human Plasma Protein Binding
The automated equilibrium dialysis assay in human plasma uses the RED (Rapid Equilibrium Dialysis) Device and sample handling. The assay generally runs over two to three days including delivery of results. After dialysis for 18 hours, plasma and buffer samples are prepared for analysis by liquid chromatography and mass spectrometry. Samples are generally tested in singlicates and quantified by LC/MSMS by using a 7-point calibration curve in plasma. The compounds are pooled together in plasma pools up to 10 compounds. Three reference compounds are used in each run, Propranolol, Metoprolol and Warfarin. Warfarin is used as a control in each pool and Propranolol and Metoprolol are placed randomly in each run. An in-house Excel macro is used for preparation of files for the robot and the mass spectrometer and also used for the calculations of fraction unbound (fu %) in plasma.

[2] = Thermodynamic solubility, shake-flask; type: physicochemical; settings: thermodynamic from solid; aqueous phosphate buffer pH 7.4, 24 hours at 25° C.
Experimental: The thermodynamic solubility of a research compound is measured under standard conditions. It is a shake-flask approach that uses 10 mM DMSO solutions which are supplied from the Compound Managements liquid store and is a high throughput method. The dried compounds are equilibrated in an aqueous phosphate buffer (pH 7.4) for 24 hours at 25° C., the portion with the dissolved compound is then separated from the remains. The solutions are analyzed and quantified using UPLC/MS/MS, QC-samples are incorporated in each assay-run to ensure the quality of the assay.

[3] = logD shake flask, 1-octanol/aqueous buffer; type: physicochemical; settings: pH 7.4
Excerpt: The lipophilicity of a drug is an important physical property which may influence many biological and metabolic properties of a compound. The distribution coefficient between 1-octanol and aqueous buffer, Log DO/W, at pH 7.4, is the most commonly used measurement of the lipophilicity of a compound. The current method for measurement of Log DO/W is based on the traditional shake flask technique, but with the modification of measuring compounds in mixtures of ten at a time using UPLC with quantitative mass spectrometry (MS) as a method to measure the relative octanol and aqueous concentrations. […] An additional QC sample Caffeine, with low Log D, are used and randomly placed in all runs. The method has been thoroughly validated against the previous shake flask methodologies.

[4] = biological target: ERα receptor in MCF-7 human ductal carcinoma breast cell line (Homo sapiens (Human), UniProt P03372); experiment: MCF-7 ER down regulation assay (immuno-fluorescence); type: cell-based; settings: MCF-7 cells, 18-22 hours incubation; read-out: ER down regulation IC50 value
Experimental: MCF-7 ER Down Regulation Assay
The ability of compounds to down-regulate Estrogen Receptor (ER) numbers was assessed in a cell based immuno-fluorescence assay using the MCF-7 human ductal carcinoma breast cell line. MCF-7 cells were revived directly from a cryovial (approx 5×10^6 cells) in Assay Medium (phenol red free Dulbecco's Modified Eagle's medium (DMEM) (Sigma D5921) containing 2mM L-Glutamine and 5% (v/v) Charcoal/Dextran treated foetal calf serum. Cells were syringed once using a sterile 18 G×1.5 inch (1.2×40 mm) broad gauge needle and cell density was measured using a Coulter Counter (Beckman). Cells were further diluted in Assay Medium to a density of 3.75×10^4 cells per mL and 40 μL per well added to transparent bottomed, black, tissue culture treated 384 well plates (Costar, No. 3712) using a Thermo Scientific Matrix WellMate or Thermo Multidrop. Following cell seeding, plates were incubated overnight at 37° C., 5% CO2 (Liconic carousel incubator). Test data was generated using the LabCyte Echo™ model 555 compound reformatter which is part of an automated workcell (Integrated Echo 2 workcell). 10 mM compound stock solutions of the test compounds were used to generate a 384 well compound dosing plate (Labcyte P-05525-CV1). […] 40 μΛ of DMSO added to wells in row P on the source plate allow for DMSO normalisation across the dose range. To dose the control wells 40 μL of DMSO was added to row O1 and 40 μL of 100 μM fulvestrant in DMSO was added to row O3 on the compound source plate. […] Compounds were dispensed onto the cell plates with a compound source plate prepared as above producing a 12 pt duplicate 3 μM to 3 pM dose range with 3 fold dilutions and one final 10 fold dilution using the Integrated Echo 2 workcell. […] Cells were fixed at room temperature for 20 mins before being washed two times with 250 μL PBS/Proclin (PBS with a Biocide preservative) using a BioTek platewasher, 40 μL of PBS/Proclin was then added to all wells and the plates stored at 4° C. The fixing method described above was carried out on the Integrated Echo 2 workcell. Immunostaining was performed using an automated AutoElisa workcell. The PBS/Proclin was aspirated from all wells and the cells permeabilised with 40 μL PBS containing 0.5% Tween™ 20 (v/v) for 1 hour at room temperature. The plates were washed three times in 250 μL of PBS/0.05% (v/v) Tween 20 with Proclin (PBST with a Biocide preservative) and then 20 μL of ERα (SP1) Rabbit monoclonal antibody (Thermofisher) 1:1000 in PBS/Tween™/3% (w/v) Bovine Serum Albumin was added. The plates were incubated overnight at 4° C. (Liconic carousel incubator) and then washed three times in 250 μL of PBS/0.05% (v/v) Tween™ 20 with Proclin (PBST). The plates were then incubated with 20 μL/well of a goat anti-rabbit IgG AlexaFluor 594 or goat anti-rabbit AlexaFluor 488 antibody (Molecular Probes) with Hoechst at 1:5000 in PBS/Tween™/3% (w/v) Bovine Serum Albumin for lhour at room temperature. The plates were then washed three times in 250 μL of PBS/0.05% (v/v) Tween™ 20 with Proclin (PBST with a Biocide preservative). 20 μL of PBS was added to each well and the plates covered with a black plate seal and stored at 4° C. before being read. Plates were read using a Cellomics Arrayscan reading the 594 nm (24 hr time point) or 488 nm (5 hr timepoint) fluorescence to measure the ERα receptor level in each well. The mean total intensity was normalized for cell number giving the total intensity per cell.

[5] = Human hepatocyte assay (metabolic stability); type: in vitro ADME; settings: human hepatocytes, 37° C., 1.0×10^6 viable cells/mL; read-out: Clint (in vitro intrinsic clearance)
Experimental: The metabolic stability of compounds in human hepatocytes was assessed using the following protocol: • 1. Prepare 10 mM stock solutions of compound and control compounds in appropriate solvent (DMSO). Place incubation medium (L-15Medium) in a 37° C. water bath, and allow warming for at least 15 minutes prior to use. • 2. Add 80 μL of acetonitrile to each well of the 96-well deep well plate (quenching plate). • 3. In a new 96-well plate, dilute the 10 mM test compounds and the control compounds to 100 μM by combining 198 μL of acetonitrile and 2 μL of 10 mM stock. • 4. Remove a vial of cryopreserved (less than −150° C.) human hepatocytes (LiverPool™ 10 Donor Human hepatocytes obtained from Celsis IVT. Chicago, Ill. (Product No. S01205)) from storage, ensuring that vials remain at cryogenic temperatures until thawing process ensues. As quickly as possible, thaw the cells by placing the vial in a 37° C. water bath and gently shaking the vials. Vials should remain in water bath until all ice crystals have dissolved and are no longer visible. After thawing is completed, spray vial with 70% ethanol, transfer the vial to a bio-safety cabinet. • 5. Open the vial and pour the contents into the 50 mL conical tube containing thawing medium. Place the 50 mL conical tube into a centrifuge and spin at 100 g for 10 minutes. […] Using Cellometer® Vision, count cells and determine the viable cell density. Cells with poor viability (<80% viability) are not acceptable for use. Dilute cells with incubation medium to a working cell density of 1.0×10^6 viable cells/mL. • 7. Transfer 247.5 μL of hepatocytes into each well of a 96-well cell culture plate. Place the plate on Eppendorf Thermomixer Comfort plate shaker to allow the hepatocytes to warm for 10 minutes. • 8. Add 2.5 μL of 100 μM test compound or control compounds into an incubation well containing cells, mix to achieve a homogenous suspension at 0.5 min, which when achieved, will define the 0.5 min time point. At the 0.5 min time, transfer 20 μL incubated mixture to wells in a “Quenching plate” followed by vortexing. • 9. Incubate the plate at 37° C. at 900 rpm on an Eppendorf Thermomixer Comfort plate shaker. At 5, 15, 30, 45, 60, 80, 100 and 120 min, mix the incubation system and transfer samples of 20 μL incubated mixture at each time point to wells in a separate “Quenching plate” followed by vortexing. • 10. Centrifuge the quenching plates for 20 minutes at 4,000 rpm. 4 different compounds are pooled into one cassette and used for LC/MS/MS analysis.
All calculations are carried out using Microsoft Excel. Peak areas are determined from extracted ion chromatograms. In vitro intrinsic clearance (in vitro Clint, in μL/min/10^6 cells) of parent compound is determined by regression analysis of the Ln percent parent disappearance vs. time curve. The in vitro intrinsic clearance (in vitro Clint, in μL/min/10^6 cells) is determined from the slope value using the following equation and is shown in Table C:
V=incubation volume (0.25 mL);
N=number of hepatocytes per well (0.25×10 ^6 cells).

ERα receptor in MCF-7 human ductal carcinoma breast cell line, sequence (P03372 whole entry): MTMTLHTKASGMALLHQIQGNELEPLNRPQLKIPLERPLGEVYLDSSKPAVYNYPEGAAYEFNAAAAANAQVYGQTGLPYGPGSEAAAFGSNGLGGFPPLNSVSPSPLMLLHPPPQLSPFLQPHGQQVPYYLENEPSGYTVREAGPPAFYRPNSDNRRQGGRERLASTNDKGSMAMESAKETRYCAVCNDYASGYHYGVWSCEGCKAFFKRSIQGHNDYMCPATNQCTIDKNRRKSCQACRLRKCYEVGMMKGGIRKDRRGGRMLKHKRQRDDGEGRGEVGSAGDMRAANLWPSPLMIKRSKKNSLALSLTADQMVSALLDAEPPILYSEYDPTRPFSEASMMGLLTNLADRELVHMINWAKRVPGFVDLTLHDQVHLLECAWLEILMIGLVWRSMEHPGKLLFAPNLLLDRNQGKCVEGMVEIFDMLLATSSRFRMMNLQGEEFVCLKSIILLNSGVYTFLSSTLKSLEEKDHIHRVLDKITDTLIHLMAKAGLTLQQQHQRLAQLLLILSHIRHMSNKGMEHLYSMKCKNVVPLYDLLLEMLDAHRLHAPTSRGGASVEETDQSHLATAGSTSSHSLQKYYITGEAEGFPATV

Structure (SMILES)	Human plasma protein binding (% free) [1]	solubility at 24 h [2]	logD [3]	DC50 [4]	hepatocyte CLint at 1 µM [5]
C[C@@H]1Cc2c(ccc3[nH]ncc23)[C@@H](c2c(F)cc(OCCN3CC(CF)C3)cc2F)N1CC(C)(C)F [Example 1, (6S,8R)-6-(2,6-difluoro-4-(2-(3-(fluoromethyl)azetidin-1-yl)ethoxy)phenyl)-7-(2-fluoro-2-methylpropyl)-8-methyl-6,7,8,9-tetrahydro-3H-pyrazolo[4,3-f]isoquinoline]				97 pM	8 µL/min/1e6 cells
CC(C)CN1[C@H](c2ccc(OCCN3CC(CF)C3)cn2)c2ccc3[nH]ncc3c2C[C@H]1C [Example 40, (6S,8R)-6-(5-(2-(3-(fluoromethyl)azetidin-1-yl)ethoxy)pyridin-2-yl)-7-isobutyl-8-methyl-6,7,8,9-tetrahydro-3H-pyrazolo[4,3-f]isoquinoline]				360 pM	8 µL/min/1e6 cells

The next lines start with results.

Human plasma protein binding (% free) [1]	solubility at 24 h [2]	logD [3]	DC50 [4]	Structure (SMILES)	hepatocyte CLint at 1 µM [5]
20 % free	1000 µM (≈ 495 µg/mL)	2.8	500 pM	C[C@@H]1Cc2c(ccc3[nH]ncc23)[C@@H](c2ncc(OCCN3CC(CF)C3)cc2F)N1CC(F)(F)F [Example 50, (6S,8R)-6-(3-fluoro-5-(2-(3-(fluoromethyl)azetidin-1-yl)ethoxy)pyridin-2-yl)-8-methyl-7-(2,2,2-trifluoroethyl)-6,7,8,9-tetrahydro-3H-pyrazolo[4,3-f]isoquinoline]	
			260 pM	C[C@@H]1Cc2c(ccc3[nH]ncc23)[C@@H](c2c(F)cc(OCCN3CC(C(F)F)C3)cc2F)N1CC(C)(C)F [Example 38, (6S,8R)-6-(4-(2-(3-(difluoromethyl)azetidin-1-yl)ethoxy)-2,6-difluorophenyl)-7-(2-fluoro-2-methylpropyl)-8-methyl-6,7,8,9-tetrahydro-3H-pyrazolo[4,3-f]isoquinoline]	15 µL/min/1e6 cells
			200 pM	C[C@@H]1Cc2c(ccc3[nH]ncc23)[C@@H](c2ccc(OCCN3CC(CF)C3)cc2)N1CC1(F)COC1 [Example 31, (6R,8R)-6-(4-(2-(3-(fluoromethyl)azetidin-1-yl)ethoxy)phenyl)-7-((3-fluorooxetan-3-yl)methyl)-8-methyl-6,7,8,9-tetrahydro-3H-pyrazolo[4,3-f]isoquinoline]	38 µL/min/1e6 cells
